Assay in all cases: MIC, standard broth micro-dilution assay
Format in all cases: cell-based
Background: Dilution methods test growth across graded concentrations, often in twofold steps.

The test system of assay [1] is Entercoccus faecalis 2041. Here is the method:
(§1) The formula I compounds have in vitro and in vivo activity against Gram-positive pathogenic bacteria. The MIC's were determined using a standard broth micro-dilution assay.

The subject of assay [2] is Entercoccus faecalis 276. The procedure:
as §1

Assay [3] relates to Entercoccus gallinarum 245. Here is the method: as §1

≈ marks a conversion by molar mass, not a printed value. Where only a bound is given, the exact number is not on record here.

In general, MIC refers to the lowest concentration found to suppress growth. `CNC(CC(C)C)C(=O)NC1C(=O)NC(CC(N)=O)C(=O)NC2C(=O)NC3C(=O)NC(C(=O)NC(C(=O)O)c4cc(O)cc(O)c4-c4cc3ccc4O)C(OC3CC(C)(N)C(O)C(C)O3)c3ccc(c(Cl)c3)Oc3cc2cc(c3OC2OC(CO)C(O)C(O)C2OC2CC(C)(NCc3ccc(OCCCCCCc4ccccc4)cc3)C(O)C(C)O2)Oc2ccc(cc2Cl)C1O` (stereo not drawn) [Compound 219, 4-[6-phenylhexyloxy]benzyl]: the MIC in assay [1], in assay [2] and in assay [3] was 2 µg/mL (≈ 1.08 µM) throughout.
For the molecule `CCOC(c1ccccc1)c1ccc(CNC2(C)CC(OC3C(Oc4c5cc6cc4Oc4ccc(cc4Cl)C(OC4CC(C)(N)C(O)C(C)O4)C4NC(=O)C(NC(=O)C6NC(=O)C(CC(N)=O)NC(=O)C(NC(=O)C(CC(C)C)NC)C(O)c6ccc(c(Cl)c6)O5)c5ccc(O)c(c5)-c5c(O)cc(O)cc5C(C(=O)O)NC4=O)OC(CO)C(O)C3O)OC(C)C2O)cc1` (stereo not drawn) [Compound 126], the MIC in assay [1] was at most 0.06 µg/mL; in assay [2], 1 µg/mL (≈ 0.55 µM); in assay [3], 2 µg/mL (≈ 1.1 µM).
The matching figures for `CNC(CC(C)C)C(=O)NC1C(=O)NC(CC(N)=O)C(=O)NC2C(=O)NC3C(=O)NC(C(=O)NC(C(=O)O)c4cc(O)cc(O)c4-c4cc3ccc4O)C(OC3CC(C)(N)C(O)C(C)O3)c3ccc(c(Cl)c3)Oc3cc2cc(c3OC2OC(CO)C(O)C(O)C2OC2CC(C)(NCCCCCCCCBr)C(O)C(C)O2)Oc2ccc(cc2Cl)C1O` (stereo not drawn) [Compound 198, 8-bromooctyl]: at most 0.06 µg/mL, 0.25 µg/mL (≈ 0.14 µM) and 1 µg/mL (≈ 0.561 µM).
`CN[C@H](CC(C)C)C(=O)N[C@H]1C(=O)N[C@@H](CC(N)=O)C(=O)N[C@H]2C(=O)N[C@H]3C(=O)N[C@H](C(=O)N[C@H](C(=O)O)c4cc(O)cc(O)c4-c4cc3ccc4O)[C@H](O[C@H]3C[C@](C)(N)[C@@H](O)[C@H](C)O3)c3ccc(c(Cl)c3)Oc3cc2cc(c3O[C@@H]2O[C@H](CO)[C@@H](O)[C@H](O)[C@H]2O[C@H]2C[C@](C)(NCc3ccc(Oc4ccc(C(C)(C)C)cc4)cc3)[C@@H](O)[C@H](C)O2)Oc2ccc(cc2Cl)[C@H]1O` [Compound 96, 4-[4-t-butylphenoxy]benzyl]: the results for the MIC in assay [1], in assay [2] and in assay [3] were 1 µg/mL (≈ 0.546 µM), 0.5 µg/mL (≈ 0.273 µM) and 2 µg/mL (≈ 1.09 µM), respectively.
For `CCCCCCCCCCC#CCNC1(C)CC(OC2C(Oc3c4cc5cc3Oc3ccc(cc3Cl)C(OC3CC(C)(N)C(O)C(C)O3)C3NC(=O)C(NC(=O)C5NC(=O)C(CC(N)=O)NC(=O)C(NC(=O)C(CC(C)C)NC)C(O)c5ccc(c(Cl)c5)O4)c4ccc(O)c(c4)-c4c(O)cc(O)cc4C(C(=O)O)NC3=O)OC(CO)C(O)C2O)OC(C)C1O` (stereo not drawn) [Compound 191, 2-tridecynyl], in that order: 1 µg/mL (≈ 0.565 µM), 4 µg/mL (≈ 2.26 µM) and 8 µg/mL (≈ 4.52 µM).
Take `CNC(CC(C)C)C(=O)NC1C(=O)NC(CC(N)=O)C(=O)NC2C(=O)NC3C(=O)NC(C(=O)NC(C(=O)O)c4cc(O)cc(O)c4-c4cc3ccc4O)C(OC3CC(C)(N)C(O)C(C)O3)c3ccc(c(Cl)c3)Oc3cc2cc(c3OC2OC(CO)C(O)C(O)C2OC2CC(C)(NCc3ccc(Cc4ccccc4)c(OC)c3)C(O)C(C)O2)Oc2ccc(cc2Cl)C1O` (stereo not drawn) [Compound 104, 4-benzyl-3-methoxybenzyl]: the MIC is at most 0.06 µg/mL in assay [1], at most 0.06 µg/mL in assay [2] and 2 µg/mL (≈ 1.11 µM) in assay [3].
In the case of `CNC(CC(C)C)C(=O)NC1C(=O)NC(CC(N)=O)C(=O)NC2C(=O)NC3C(=O)NC(C(=O)NC(C(=O)O)c4cc(O)cc(O)c4-c4cc3ccc4O)C(OC3CC(C)(N)C(O)C(C)O3)c3ccc(c(Cl)c3)Oc3cc2cc(c3OC2OC(CO)C(O)C(O)C2OC2CC(C)(NCc3cncc(-c4ccccc4)c3)C(O)C(C)O2)Oc2ccc(cc2Cl)C1O` (stereo not drawn) [Compound 151, 5-phenyl-3-pyridinylmethyl], the minimal inhibitory concentration (MIC) was at most 0.06 µg/mL in assay [1], at most 0.06 µg/mL in assay [2] and 4 µg/mL (≈ 2.27 µM) in assay [3].
For the molecule `CNC(CC(C)C)C(=O)NC1C(=O)NC(CC(N)=O)C(=O)NC2C(=O)NC3C(=O)NC(C(=O)NC(C(=O)O)c4cc(O)cc(O)c4-c4cc3ccc4O)C(OC3CC(C)(N)C(O)C(C)O3)c3ccc(c(Cl)c3)Oc3cc2cc(c3OC2OC(CO)C(O)C(O)C2OC2CC(C)(NCCc3ccc(Cc4ccccc4)cc3)C(O)C(C)O2)Oc2ccc(cc2Cl)C1O` (stereo not drawn) [Compound 35, 4 -benzylphenethyl], the MIC in assay [1], in assay [2] and in assay [3] was at most 0.06 µg/mL each time.
Turning to `CNC(CC(C)C)C(=O)NC1C(=O)NC(CC(N)=O)C(=O)NC2C(=O)NC3C(=O)NC(C(=O)NC(C(=O)O)c4cc(O)cc(O)c4-c4cc3ccc4O)C(OC3CC(C)(N)C(O)C(C)O3)c3ccc(c(Cl)c3)Oc3cc2cc(c3OC2OC(CO)C(O)C(O)C2OC2CC(C)(NCc3cccc(Oc4cccc(C(F)(F)F)c4)c3)C(O)C(C)O2)Oc2ccc(cc2Cl)C1O` (stereo not drawn) [Compound 203], the values for the minimum inhibitory concentration (MIC) in assay [1], in assay [2] and in assay [3] were 0.25 µg/mL (≈ 0.136 µM), 0.5 µg/mL (≈ 0.271 µM) and 2 µg/mL (≈ 1.09 µM), respectively.
The matching figures for `CNC(CC(C)C)C(=O)NC1C(=O)NC(CC(N)=O)C(=O)NC2C(=O)NC3C(=O)NC(C(=O)NC(C(=O)O)c4cc(O)cc(O)c4-c4cc3ccc4O)C(OC3CC(C)(N)C(O)C(C)O3)c3ccc(c(Cl)c3)Oc3cc2cc(c3OC2OC(CO)C(O)C(O)C2OC2CC(C)(NCc3ccc(OC(=O)c4ccccc4)cc3)C(O)C(C)O2)Oc2ccc(cc2Cl)C1O` (stereo not drawn) [Compound 150, 4-benzoyloxybenzyl]: at most 0.06 µg/mL, 1 µg/mL (≈ 0.555 µM) and 2 µg/mL (≈ 1.11 µM).
Take `CNC(CC(C)C)C(=O)NC1C(=O)NC(CC(N)=O)C(=O)NC2C(=O)NC3C(=O)NC(C(=O)NC(C(=O)O)c4cc(O)cc(O)c4-c4cc3ccc4O)C(OC3CC(C)(N)C(O)C(C)O3)c3ccc(c(Cl)c3)Oc3cc2cc(c3OC2OC(CO)C(O)C(O)C2OC2CC(C)(NCc3ccc(OC(F)F)cc3)C(O)C(C)O2)Oc2ccc(cc2Cl)C1O` (stereo not drawn) [Compound 72, 4-difluormethoxybenzyl]: the MIC was at most 0.06 µg/mL in assay [1], at most 0.06 µg/mL in assay [2] and 4 µg/mL (≈ 2.29 µM) in assay [3].
On to `CNC(CC(C)C)C(=O)NC1C(=O)NC(CC(N)=O)C(=O)NC2C(=O)NC3C(=O)NC(C(=O)NC(C(=O)O)c4cc(O)cc(O)c4-c4cc3ccc4O)C(OC3CC(C)(N)C(O)C(C)O3)c3ccc(c(Cl)c3)Oc3cc2cc(c3OC2OC(CO)C(O)C(O)C2OC2CC(C)(NCC3CCC(Cc4ccccc4)CC3)C(O)C(C)O2)Oc2ccc(cc2Cl)C1O` (stereo not drawn) [Compound 241, 4-[benzyl]cyclohexylmethyl], for which the MIC in assay [1], in assay [2] and in assay [3] was at most 0.06 µg/mL each time.
For the molecule `CNC(CC(C)C)C(=O)NC1C(=O)NC(CC(N)=O)C(=O)NC2C(=O)NC3C(=O)NC(C(=O)NC(C(=O)O)c4cc(O)cc(O)c4-c4cc3ccc4O)C(OC3CC(C)(N)C(O)C(C)O3)c3ccc(c(Cl)c3)Oc3cc2cc(c3OC2OC(CO)C(O)C(O)C2OC2CC(C)(NCc3cccc(OC(C)=O)c3)C(O)C(C)O2)Oc2ccc(cc2Cl)C1O` (stereo not drawn) [Compound 77, 3-acetoxybenzyl], the minimum inhibitory concentration (MIC) in assay [1], in assay [2] and in assay [3] was 0.25 µg/mL (≈ 0.144 µM) each time.

The values above are taken from patent US5843889A, “Glycopeptide antibiotic derivatives” (Eli Lilly and Company, priority 1997, dated 1998).
